These results are taken from patent US8901313B2, “6,5-heterocyclic propargylic alcohol compounds and uses therefor” (Genentech, Inc., priority 2011, dated 2014).

Structures are written as SMILES.

In this assay the target is T1, nuclear factor-kappa B (NF-kB)-inducing kinase (NIK) (Homo sapiens, UniProt Q99558).
T1 construct: made in house; host or cells: baculovirus-infected insect cells
T1 sequence (Q99558 whole entry): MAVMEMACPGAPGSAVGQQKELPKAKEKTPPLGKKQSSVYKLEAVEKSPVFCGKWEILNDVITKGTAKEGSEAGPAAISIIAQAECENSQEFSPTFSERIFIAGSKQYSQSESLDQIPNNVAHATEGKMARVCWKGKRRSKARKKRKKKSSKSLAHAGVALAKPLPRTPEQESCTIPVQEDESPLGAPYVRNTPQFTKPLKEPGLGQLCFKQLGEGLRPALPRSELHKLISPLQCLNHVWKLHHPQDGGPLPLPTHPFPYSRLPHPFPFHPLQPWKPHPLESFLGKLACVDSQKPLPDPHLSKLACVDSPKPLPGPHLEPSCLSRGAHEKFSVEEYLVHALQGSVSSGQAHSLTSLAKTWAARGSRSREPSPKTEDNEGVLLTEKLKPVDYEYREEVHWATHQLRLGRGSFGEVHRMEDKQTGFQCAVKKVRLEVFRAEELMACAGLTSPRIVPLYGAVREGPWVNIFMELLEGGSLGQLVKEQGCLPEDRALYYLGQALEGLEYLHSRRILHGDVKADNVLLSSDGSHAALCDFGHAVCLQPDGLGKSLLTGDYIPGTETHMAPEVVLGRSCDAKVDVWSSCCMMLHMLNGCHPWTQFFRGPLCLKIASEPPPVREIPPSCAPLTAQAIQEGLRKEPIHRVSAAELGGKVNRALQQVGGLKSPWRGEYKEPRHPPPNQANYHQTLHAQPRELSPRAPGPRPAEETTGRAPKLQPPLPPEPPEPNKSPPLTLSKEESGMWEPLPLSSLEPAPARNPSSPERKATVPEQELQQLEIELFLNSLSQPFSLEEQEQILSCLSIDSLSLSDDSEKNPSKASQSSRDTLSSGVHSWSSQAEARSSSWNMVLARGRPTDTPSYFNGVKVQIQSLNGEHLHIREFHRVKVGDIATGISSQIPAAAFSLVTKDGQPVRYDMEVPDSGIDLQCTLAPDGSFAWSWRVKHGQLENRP
In words: NIK Enzyme Inhibition Assay (Transcreener ADP assay). The format is biochemical. To be noted: purified NIK 0.2-1 nM, 10 uM ATP, fluorescence polarization, Morrison's quadratic equation; read-out: inhibitory value (Ki) for NIK.
As for `Cc1cc([C@](C)(O)C#Cc2ccc3c(CN4CCOCC4)nn(-c4ccnc(N)n4)c3c2)no1` [Example T1.1-38, (2R)-4-[1-(2-aminopyrimidin-4-yl)-3-(morpholinomethyl)indazol-6-yl]-2-(5-methylisoxazol-3-yl)but-3-yn-2-ol], the Ki (usually the dissociation constant of the complex between target and ligand, obtained from inhibition or displacement) turned out to be 2 nM.

In the case of `CN(C)C(=O)c1nn(-c2ccnc(N)n2)c2cc(C#CC3(O)CCn4ccnc43)ccc12` (stereo not shown) [Example T1.1-39, 1-(2-aminopyrimidin-4-yl)-6-[2-(7-hydroxy-5,6-dihydropyrrolo[1,2-a]imidazol-7-yl)ethynyl]-N,N-dimethyl-indazole-3-carboxamide], the Ki worked out at 2 nM.

As for `Cc1nc([C@](C)(O)C#Cc2ccc3c(CO)nn(-c4ccnc(N)n4)c3c2)no1` [Example T1.1-40, (2R)-4-[1-(2-aminopyrimidin-4-yl)-3-(hydroxymethyl)indazol-6-yl]-2-(5-methyl-1,2,4-oxadiazol-3-yl)but-3-yn-2-ol], the Ki came to 2 nM.

`Nc1nccc(-n2nc(C(=O)N3CCOCC3)c3ccc(C#CC4(O)CCn5ccnc54)cc32)n1` (stereo not shown) [Example T1.1-41, [1-(2-aminopyrimidin-4-yl)-6-[2-(7-hydroxy-5,6-dihydropyrrolo[1,2-a]imidazol-7-yl)ethynyl]indazol-3-yl]-morpholino-methanone]: the Ki amounted to 2 nM.

For the compound `Cc1cc(C(C)(O)C#Cc2ccc3nc(OC4CCOCC4)n(-c4ccnc(N)n4)c3c2)no1` (stereo not shown) [Example T1.1-42, 4-[3-(2-aminopyrimidin-4-yl)-2-tetrahydropyran-4-yloxy-benzimidazol-5-yl]-2-(5-methylisoxazol-3-yl)but-3-yn-2-ol], the Ki stood at 3 nM.

Consider `CC(O)(C#Cc1ccc2c(CN3CC(F)(F)C3)nn(-c3ccnc(N)n3)c2c1)c1ncccn1` (stereo not shown) [Example T1.1-43, 4-[1-(2-aminopyrimidin-4-yl)-3-[(3,3-difluoroazetidin-1-yl)methyl]indazol-6-yl]-2-pyrimidin-2-yl-but-3-yn-2-ol], for which the Ki came to 3 nM.

As to `COCCOc1nc2ccc(C#C[C@@](C)(O)c3cc(C)on3)cc2n1-c1ccnc(N)n1` [Example T1.1-44, (2R)-4-[3-(2-aminopyrimidin-4-yl)-2-(2-methoxyethoxy)benzimidazol-5-yl]-2-(5-methylisoxazol-3-yl)but-3-yn-2-ol], the Ki was 3 nM.

Consider `Cc1nn(-c2ccnc(N)n2)c2cc(C#CC(C)(O)c3nc[nH]n3)ccc12` (stereo not shown) [Example T1.1-45, 4-[1-(2-aminopyrimidin-4-yl)-3-methyl-indazol-6-yl]-2-(1H-1,2,4-triazol-3-yl)but-3-yn-2-ol], for which the Ki worked out at 3 nM.

For `CC(O)(C#Cc1ccc2nc(OCC(F)(F)F)n(-c3ccnc(N)n3)c2c1)c1ncccn1` (stereo not shown) [Example T1.1-46, 4-[3-(2-aminopyrimidin-4-yl)-2-(2,2,2-trifluoroethoxy)benzimidazol-5-yl]-2-pyrimidin-2-yl-but-3-yn-2-ol], the Ki was 3 nM.

Regarding `Cc1nc([C@](C)(O)C#Cc2ccc3nc(OC4COC4)n(-c4ccnc(N)n4)c3c2)no1` [Example T1.1-47, (2R)-4-[3-(2-aminopyrimidin-4-yl)-2-(oxetan-3-yloxy)benzimidazol-5-yl]-2-(5-methyl-1,2,4-oxadiazol-3-yl)but-3-yn-2-ol], the Ki is 3 nM.

Consider `CCOc1nc2ccc(C#CC(C)(O)c3ncccn3)cc2n1-c1ccnc(N)n1` (stereo not shown) [Example T1.1-48, 4-[3-(2-aminopyrimidin-4-yl)-2-ethoxy-benzimidazol-5-yl]-2-pyrimidin-2-yl-but-3-yn-2-ol], for which the inhibition constant (Ki) turned out to be 3 nM.

Consider `CC(O)(C#Cc1ccc2c(CF)nn(-c3ccnc(N)n3)c2c1)c1ncccn1` (stereo not shown) [Example T1.1-49, 4-[1-(2-aminopyrimidin-4-yl)-3-(fluoromethyl)indazol-6-yl]-2-pyrimidin-2-yl-but-3-yn-2-ol], for which the Ki was found to be 4 nM.

In the case of `Cc1nc([C@](C)(O)C#Cc2ccc3c(C(C)(C)O)nn(-c4nc(N)ncc4Cl)c3c2)no1` [Example T1.1-50, (2R)-4-[1-(2-amino-5-chloro-pyrimidin-4-yl)-3-(1-hydroxy-1-methyl-ethyl)indazol-6-yl]-2-(5-methyl-1,2,4-oxadiazol-3-yl) but-3-yn-2-ol], the Ki is 4 nM.

For the compound `COCCOc1nc2ccc(C#C[C@@](C)(O)c3noc(C)n3)cc2n1-c1ccnc(N)n1` [Example T1.1-51, (2R)-4-[3-(2-aminopyrimidin-4-yl)-2-(2-methoxyethoxy)benzimidazol-5-yl]-2-(5-methyl-1,2,4-oxadiazol-3-yl)but-3-yn-2-ol], the Ki turned out to be 4 nM.

Take `Cc1nn(-c2ccnc(N)n2)c2cc(C#CC(C)(O)CF)ccc12` (stereo not shown) [Example T1.1-52, 4-[1-(2-aminopyrimidin-4-yl)-3-methyl-indazol-6-yl]-1-fluoro-2-methyl-but-3-yn-2-ol]: the inhibitory constant (Ki) was 4 nM.

On to `CC(O)(C#Cc1ccc2c(C(=O)N3CCOCC3)nn(-c3ccnc(N)n3)c2c1)c1ncccn1` (stereo not shown) [Example T1.1-54, [1-(2-aminopyrimidin-4-yl)-6-(3-hydroxy-3-pyrimidin-2-yl-but-1-ynyl)indazol-3-yl]-morpholino-methanone], for which the Ki was 4 nM.

For `CC(=O)N1CC(Oc2nc3ccc(C#CC(C)(O)c4cc(C)on4)cc3n2-c2ccnc(N)n2)C1` (stereo not shown) [Example T1.1-55, 1-[3-[1-(2-aminopyrimidin-4-yl)-6-[3-hydroxy-3-(5-methylisoxazol-3-yl)but-1-ynyl]benzimidazol-2-yl]oxyazetidin-1-yl]ethanone], the Ki turned out to be 4 nM.

As for `CC(C)(O)c1nn(-c2ccnc(N)n2)c2cc(C#CC(C)(O)c3ccccn3)ccc12` (stereo not shown) [Example T1.1-56, 4-[1-(2-aminopyrimidin-4-yl)-3-(1-hydroxy-1-methyl-ethyl)indazol-6-yl]-2-(2-pyridyl)but-3-yn-2-ol], the Ki came to 4 nM.

Consider `CC(C)(O)c1nn(-c2ccnc(N)n2)c2cc(C#CC(C)(O)c3ncccn3)ccc12` (stereo not shown) [Example T1.1-57, 4-[1-(2-aminopyrimidin-4-yl)-3-(1-hydroxy-1-methyl-ethyl)indazol-6-yl]-2-pyrimidin-2-yl-but-3-yn-2-ol], for which the Ki worked out at 5 nM.

As to `COCCOc1nc2ccc(C#CC(C)(O)c3ncccn3)cc2n1-c1ccnc(N)n1` (stereo not shown) [Example T1.1-58, 4-[3-(2-aminopyrimidin-4-yl)-2-(2-methoxyethoxy)benzimidazol-5-yl]-2-pyrimidin-2-yl-but-3-yn-2-ol], the Ki amounted to 5 nM.

For `Cc1cc(C(C)(O)C#Cc2ccc3c(C(O)(C4CCOCC4)C4CC4)nn(-c4ccnc(N)n4)c3c2)no1` (stereo not shown) [Example T1.1-59, 4-[1-(2-aminopyrimidin-4-yl)-3-(cyclopropyl-hydroxy-tetrahydropyran-4-yl-methyl)indazol-6-yl]-2-(5-methyl-isoxazol-3-yl)but-3-yn-2-ol], the Ki is 5 nM.

As for `CC(O)(C#Cc1ccc2nc(OCCO)n(-c3ccnc(N)n3)c2c1)c1ncccn1` (stereo not shown) [Example T1.1-60, 4-[3-(2-aminopyrimidin-4-yl)-2-(2-hydroxyethoxy)benzimidazol-5-yl]-2-pyrimidin-2-yl-but-3-yn-2-ol], the Ki was 6 nM.

With `CC(O)(C#Cc1ccc2c(CO)nn(-c3ccnc(N)n3)c2c1)c1ncccn1` (stereo not shown) [Example T1.1-61, 4-[1-(2-aminopyrimidin-4-yl)-3-(hydroxymethyl)indazol-6-yl]-2-pyrimidin-2-yl-but-3-yn-2-ol], the Ki was 6 nM.

For `Cc1nc2ccc(C#CC(C)(O)c3ncccn3)cc2n1-c1ncnc(N)n1` (stereo not shown) [Example T1.1-62, 4-[3-(4-amino-1,3,5-triazin-2-yl)-2-methyl-benzimidazol-5-yl]-2-pyrimidin-2-yl-but-3-yn-2-ol], the inhibitory constant (Ki) was 6 nM.

In the case of `CC(O)(C#Cc1ccc2c(C(=O)N3CC4(COC4)C3)nn(-c3ccnc(N)n3)c2c1)c1ncccn1` (stereo not shown) [Example T1.1-63, [1-(2-aminopyrimidin-4-yl)-6-(3-hydroxy-3-pyrimidin-2-yl-but-1-ynyl)indazol-3-yl]-(2-oxa-6-azaspiro[3.3]heptan-6-yl)methanone], the Ki turned out to be 6 nM.

In the case of `CN(C)C(=O)c1nn(-c2ccnc(N)n2)c2cc(C#CC(C)(O)c3ncccn3)ccc12` (stereo not shown) [Example T1.1-64, 1-(2-aminopyrimidin-4-yl)-6-(3-hydroxy-3-pyrimidin-2-yl-but-1-ynyl)-N,N-dimethyl-indazole-3-carboxamide], the Ki turned out to be 6 nM.

Take `Cc1nc([C@](C)(O)C#Cc2ccc3c(CN4CC(F)(F)C4)nn(-c4ccnc(N)n4)c3c2)no1` [Example T1.1-65, (2R)-4-[1-(2-aminopyrimidin-4-yl)-3-[(3,3-difluoroazetidin-1-yl)methyl]indazol-6-yl]-2-(5-methyl-1,2,4-oxadiazol-3-yl)but-3-yn-2-ol]: the Ki was 7 nM.

As to `CC(O)(C#Cc1ccc2c(C(=O)N3CC4CC3CO4)nn(-c3ccnc(N)n3)c2c1)c1ncccn1` (stereo not shown) [Example T1.1-66, [1-(2-aminopyrimidin-4-yl)-6-(3-hydroxy-3-pyrimidin-2-yl-but-1-ynyl)indazol-3-yl]-(2-oxa-5-azabicyclo[2.2.1]heptan-5-yl)methanone], the Ki was 7 nM.

Regarding `CC(C)(O)c1nn(-c2ccnc(N)n2)c2cc(C#CC3(O)CCc4cccnc43)ccc12` (stereo not shown) [Example T1.1-67, 7-[2-[1-(2-aminopyrimidin-4-yl)-3-(1-hydroxy-1-methyl-ethyl)indazol-6-yl]ethynyl]-5,6-dihydrocyclopenta[b] pyridin-7-ol], the Ki came to 8 nM.

Consider `Cc1nc([C@](C)(O)C#Cc2ccc3c(C(=O)N4CCC(F)CC4)nn(-c4nc(N)ncc4Cl)c3c2)no1` [Example T1.1-68, [1-(2-amino-5-chloro-pyrimidin-4-yl)-6-[(3R)-3-hydroxy-3-(5-methyl-1,2,4-oxadiazol-3-yl)but-1-ynyl]indazol-3-yl]-(4-fluoro-1-piperidyl)methanone], for which the Ki came out at 9 nM.

For `CC1CN(C(=O)c2nn(-c3ccnc(N)n3)c3cc(C#CC(C)(O)c4ncccn4)ccc23)CC(C)O1` (stereo not shown) [Example T1.1-69, [1-(2-aminopyrimidin-4-yl)-6-(3-hydroxy-3-pyrimidin-2-yl-but-1-ynyl)indazol-3-yl]-(2,6-dimethylmorpholin-4-yl) methanone], the Ki stood at 9 nM.
